# Measurements from US20240400555A1 (Initial Therapeutics, Inc., priority 2023, published 2024).
# Tested on: MV-4-11 cells
# Test: Cell Viability Assay in MV-4-11 Cells
# Assay type: cell-based
# Conditions: Homo sapiens, MV4-11, 72 h
# Outline: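 MV-4-11 cells at 7,000/well in IMDM with 10% FBS, exposed to compound for 72 h. Viability by CellTiter-Glo luminescence, normalized to DMSO as 100%, fitted with a four-parameter curve.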
row,SMILES,IC50 [nM]
1,"Cn1cc(-c2ccc(C(=O)N(c3nccc4sc(-c5cnn(CC(N)=O)c5)cc34)[C@@H]3CCCNC3)c(F)c2)nn1 [Example 489, N-[2-[1-(2-amino-2-oxo-ethyl)pyrazol-4-yl]thieno[3,2-c]pyridin-4-yl]-2-fluoro-4-(1-methyltriazol-4-yl)-N-[(3R)-3-piperidyl]benzamide]",> 10000
2,"Cc1n[nH]c(-c2ccc(C(=O)N(c3nccc4cccc(C)c34)[C@@H]3CCCNC3)c(F)c2)n1 [Example 324, (R)-2-fluoro-4-(3-methyl-1H-1,2,4-triazol-5-yl)-N-(8-methylisoquinolin-1-yl)-N-(piperidin-3-yl) benzamide]",1500

# Same assay, conditions: Homo sapiens, MV4-11, 72 h, MV-4-11 cells, 72 h, Cell-Titer Glo; read-out: IC50
row,SMILES,IC50 [nM]
1,"Cc1cccc2ccnc(N(C(=O)c3ccc(Nc4nccc(N5CCC(N6CCCC6)CC5)n4)cc3F)[C@@H]3CCCNC3)c12 [Example 715, (R)-2-fluoro-N-(8-methylisoquinolin-1-yl)-N-(piperidin-3-yl)-4-((4-(4-(pyrrolidin-1-yl)piperidin-1-yl)pyrimidin-2-yl)amino)benzamide]",230
2,"[2H]C([2H])([2H])c1nnc(-c2ccc(C(=O)N(c3nccc4cc(Cl)cc(C)c34)[C@@H]3CCCNC3)c(F)c2)s1 [Example 766, (R)—N-(6-chloro-8-methylisoquinolin-1-yl)-2-fluoro-4-(5-(methyl-d3)-1,3,4-thiadiazol-2-yl)-N-(piperidin-3-yl)benzamide]",100
3,"Cc1csc2ccnc(N(C(=O)c3ccc(-c4cn(CCC#N)nn4)cc3F)[C@@H]3CCCNC3)c12 [Example 881, 4-[1-(2-cyanoethyl)triazol-4-yl]-2-fluoro-N-(3-methylthieno[3,2-c]pyridin-4-yl)-N-[(3R)-3-piperidyl]benzamide]",150
4,"Cc1cccc2ccnc(N(C(=O)c3ccc(C#N)c(-c4cccc(-c5cccnc5)c4)c3)[C@@H]3CCCNC3)c12 [Example 336, 4-cyano-N-(8-methyl-1-isoquinolyl)-N-[(3R)-3-piperidyl]-3-[3-(3-pyridyl)phenyl]benzamide]",270
5,"CCc1csc2ccnc(N(C(=O)c3ccc(-c4nnc(C)s4)cc3F)[C@@H]3CCCNC3)c12 [Example 617, (R)—N-(3-ethylthieno[3,2-c]pyridin-4-yl)-2-fluoro-4-(5-methyl-1,3,4-thiadiazol-2-yl)-N-(piperidin-3-yl)benzamide]",540
6,"Cn1cc(-c2ccc(C(=O)N(c3nccc4sc(C#N)cc34)[C@@H]3CCCNC3)c(F)c2)nn1 [Example 477, N-(2-cyanothieno [3,2-c]pyridin-4-yl)-2-fluoro-4-(1-methyltriazol-4-yl)-N-[(3R)-3-piperidyl] benzamide]",2800
7,"Cc1cccc2ccnc(N(C(=O)c3ccc(Nc4nccc(CN5CCOCC5)n4)cc3F)[C@@H]3CCCNC3)c12 [Example 741, (R)-2-fluoro-N-(8-methylisoquinolin-1-yl)-4-((4-(morpholinomethyl)pyrimidin-2-yl)amino)-N-(piperidin-3-yl)benzamide]",310
8,"Cc1ncc(-c2cc3c(N(C(=O)c4ccc(-n5nnc6cccnc65)cc4F)[C@@H]4CCCNC4)nccc3s2)s1 [Example 443, 2-fluoro-N-[2-(2-methylthiazol-5-yl)thieno[3,2-c]pyridin-4-yl]-N-[(3R)-3-piperidyl]-4-(triazolo[4,5-b]pyridin-3-yl)benzamide]",300
9,"O=C(c1ccc(Nc2nccc(N3CCCCC3)n2)cc1F)N(c1nccc2cc(F)ccc12)[C@@H]1CCCNC1 [Example 561, (R)-2-fluoro-N-(6-fluoroisoquinolin-1-yl)-4-((4-(piperidin-1-yl)pyrimidin-2-yl)amino)-N-(piperidin-3-yl)benzamide]",1200
10,"Cc1cc(C)c2c(N(C(=O)c3ccc(-c4nc(C)no4)cc3)[C@@H]3CCCNC3)nccc2c1 [Example 915, N-(6,8-dimethyl-1-isoquinolyl)-4-(3-methyl-1,2,4-oxadiazol-5-yl)-N-[(3R)-3-piperidyl] benzamide]",86
11,"CCc1nnc(-c2ccc(C(=O)N(c3nccc4c(C)csc34)[C@@H]3CCCNC3)nc2)s1 [Example 669, 5-(5-ethyl-1,3,4-thiadiazol-2-yl)-N-(3-methylthieno[2,3-c]pyridin-7-yl)-N-[(3R)-3-piperidyl]pyridine-2-carboxamide]",3200
12,"Cc1nnc(-c2ccc(C(=O)N(c3nccc4c(C)ccc(C)c34)[C@@H]3CCCNC3)cn2)s1 [Example 897, N-(5,8-dimethyl-1-isoquinolyl)-6-(5-methyl-1,3,4-thiadiazol-2-yl)-N-[(3R)-3-piperidyl] pyridine-3-carboxamide]",140
13,"Cn1cc(-c2ccc(C(=O)N(c3nccc4cc(-c5cccc(CO)c5)ccc34)[C@@H]3CCCNC3)c(F)c2)nn1 [Example 490, (R)-2-fluoro-N-(6-(3-(hydroxymethyl)phenyl)isoquinolin-1-yl)-4-(1-methyl-1H-1,2,3-triazol-4-yl)-N-(piperidin-3-yl)benzamide]",300
14,"Cc1cc2c(N(C(=O)c3ccc(-n4nnc5cccnc54)cc3F)[C@@H]3CCCNC3)nccc2s1 [Example 739, (R)-4-(3H-[1,2,3]triazolo[4,5-b]pyridin-3-yl)-2-fluoro-N-(2-methylthieno[3,2-c]pyridin-4-yl)-N-(piperidin-3-yl)benzamide]",650
15,"Cn1cc(-c2ccc(C(=O)N(c3nccc4sc(/C=C/C(N)=O)cc34)[C@@H]3CCCNC3)c(F)c2)nn1 [Example 486, N-[2-[(E)-3-amino-3-oxo-prop-1-enyl]thieno[3,2-c]pyridin-4-yl]-2-fluoro-4-(1-methyltriazol-4-yl)-N-[(3R)-3-piperidyl]benzamide]",> 10000
16,"Cc1cc(-c2cc3c(N(C(=O)c4ccc(-n5nnc6cccnc65)cc4F)[C@@H]4CCCNC4)nccc3s2)ccc1C(N)=O [Example 572, 4-[4-[[2-fluoro-4-(triazolo [4,5-b]pyridin-3-yl)benzoyl]-[(3R)-3-piperidyl]amino]thieno [3,2-c]pyridin-2-yl]-2-methyl-benzamide]",89
17,"Cc1cccc2ccnc(N(C(=O)N3CCCC(CCC(=O)Nc4ccc5cn[nH]c5c4)C3)[C@@H]3CCCNC3)c12 (stereo partly drawn) [Example 499, 3-(3-((1H-indazol-6-yl)amino)-3-oxopropyl)-N-(8-methylisoquinolin-1-yl)-N—((R)-piperidin-3-yl)piperidine-1-carboxamide]",1700
18,"Cc1nnc(-c2ccc(C(=O)N(c3nccc4cc(F)cc(C)c34)C3CCCNC3)cc2)s1 (stereo not drawn) [Example 725, N-(6-fluoro-8-methyl-1-isoquinolyl)-4-(5-methyl-1,3,4-thiadiazol-2-yl)-N-(3-piperidyl)benzamide]",210
19,"O=C(O)/C=C/c1ccc2c(N(C(=O)c3ccc(-n4nnc5cccnc54)cc3F)[C@@H]3CCCNC3)nccc2c1 [Example 406, (R,E)-3-(1-(4-(3H-[1,2,3]triazolo[4,5-b]pyridin-3-yl)-2-fluoro-N-(piperidin-3-yl)benzamido)isoquinolin-6-yl)acrylic acid]",> 10000
20,"Cc1cccc2ccnc(N(C(=O)c3ccc(Nc4nccc(C5=CCC(O)CC5)n4)cc3F)[C@@H]3CCCNC3)c12 (stereo partly drawn) [Example 681, 2-fluoro-4-((4-(4-hydroxycyclohex-1-en-1-yl)pyrimidin-2-yl)amino)-N-(8-methylisoquinolin-1-yl)-N—((R)-piperidin-3-yl)benzamide]",32
21,"Cc1cccc2ccnc(N(C(=O)c3ccc(N4CCOC(C)(C)C4)cc3F)[C@@H]3CCCNC3)c12 [Example 644, 4-(2,2-dimethylmorpholin-4-yl)-2-fluoro-N-(8-methyl-1-isoquinolyl)-N-[(3R)-3-piperidyl] benzamide]",> 6300
22,"COCC1CCN(c2ccnc(Nc3ccc(C(=O)N(c4nccc5cccc(C)c45)[C@@H]4CCCNC4)c(F)c3)n2)CC1 [Example 964, (R)-2-fluoro-4-((4-(4-(methoxymethyl)piperidin-1-yl)pyrimidin-2-yl)amino)-N-(8-methylisoquinolin-1-yl)-N-(piperidin-3-yl)benzamide]",64
23,"C#Cc1cc2c(N(C(=O)c3ccc(-n4nnc5cccnc54)cc3F)[C@@H]3CCCNC3)nccc2s1 [Example 382, N-(2-ethynylthieno[3,2-c]pyridin-4-yl)-2-fluoro-N-[(3R)-3-piperidyl]-4-(triazolo[4,5-b]pyridin-3-yl)benzamide]",640
24,"CNS(=O)(=O)c1ccc(-c2cc3c(N(C(=O)c4ccc(-c5cn(C)nn5)cc4F)[C@@H]4CCCNC4)nccc3s2)cc1 [Example 534, (R)-2-fluoro-4-(1-methyl-1H-1,2,3-triazol-4-yl)-N-(2-(4-(N-methylsulfamoyl)phenyl)thieno[3,2-c]pyridin-4-yl)-N-(piperidin-3-yl)benzamide]",200
25,"COc1cc(C)c2c(N(C(=O)c3ccc(-c4nnc(C)s4)cc3)[C@@H]3CCCNC3)nccc2c1 [Example 866, N-(6-methoxy-8-methyl-1-isoquinolyl)-4-(5-methyl-1,3,4-thiadiazol-2-yl)-N-[(3R)-3-piperidyl]benzamide]",52
26,"O=C(c1ccc(-n2nnc3cccnc32)cc1F)N(c1nccc2sc(-c3cccc(-c4ncco4)c3)cc12)[C@@H]1CCCNC1 [Example 449, 2-fluoro-N-[2-(3-oxazol-2-ylphenyl)thieno [3,2-c]pyridin-4-yl]-N-[(3R)-3-piperidyl]-4-(triazolo [4,5-b]pyridin-3-yl) benzamide]",940
27,"COc1ccc(C)c2c(N(C(=O)c3ccc(-c4cn(C)nn4)cc3)[C@@H]3CCCNC3)nccc12 [Example 872, N-(5-methoxy-8-methyl-1-isoquinolyl)-4-(1-methyltriazol-4-yl)-N-[(3R)-3-piperidyl]benzamide]",2100
28,"Cc1cccc2ccnc(N(C(=O)c3ccc(Nc4nccc(N5CCC[C@@H]5CO)n4)cc3F)[C@@H]3CCCNC3)c12 [Example 966, 2-fluoro-4-({4-[(2R)-2-(hydroxymethyl)pyrrolidin-1-yl]pyrimidin-2-yl}amino)-N-(8-methylisoquinolin-1-yl)-N-[(3R)-piperidin-3-yl]benzamide]",32
